How the values were obtained:
APOL1 G1 = biological target: T1, APOL1 G1 (Homo sapiens, UniProt O14791, I384M/S342G); test: Trypanosoma brucei brucei Lysis Assay Using APOL1 Recombinant Protein (AlamarBlue viability readout); format: cell-based; settings: Trypanosome Assay; for IC50: IP50 = IC50 for cell proliferation, read-out: Trypanosome Assay IP50; for Emax: read-out: Trypanosome Assay Max Activity (%)
T1 sequence (O14791 28-398 S342G/I384M): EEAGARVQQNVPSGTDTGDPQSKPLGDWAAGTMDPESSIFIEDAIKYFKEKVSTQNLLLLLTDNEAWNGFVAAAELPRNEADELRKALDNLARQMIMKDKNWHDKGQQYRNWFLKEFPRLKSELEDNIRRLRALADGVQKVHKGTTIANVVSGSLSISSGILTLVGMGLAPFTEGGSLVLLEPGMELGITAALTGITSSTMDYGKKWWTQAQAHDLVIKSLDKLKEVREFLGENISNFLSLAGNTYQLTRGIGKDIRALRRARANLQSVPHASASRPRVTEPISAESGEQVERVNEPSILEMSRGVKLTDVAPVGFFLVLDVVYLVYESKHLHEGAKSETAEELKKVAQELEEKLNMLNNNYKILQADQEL
Text: Trypanosoma brucei brucei is a blood stream parasite to which human, gorillas, and baboons are immune due to the presence of the APOL1 protein in their HDL particles. The protein is uptaken by the parasite via the TbHpHb receptor located in its flagellar pocket and is bonded by the Hpr protein contained in the HDL particles which triggers the receptor endocytosis by the parasite.
Following endocytosis, the formed vesicle containing the HDL particle matures from early to late endosome, and subsequently to lysosome. The concomitant pH change in the lumen of the vesicle triggers the insertion of the APOL1 protein into the membrane of the late endosome/lysosome and hereby triggers lysosomal membrane permeabilization and as a further downstream event, trypanosome lysis. Trypanosoma brucei brucei is sensitive to lysis by all three APOL1 variants (G0, G1, and G2).
The Trypanosoma brucei brucei lysis assay is a lysis assay of the parasite using recombinant APOL1 protein variant followed by a fluorescent detection method of viability by the addition of AlamarBlue reagent to the assay well, a general metabolic redox indicator (AlamarBlue assay).
Briefly, the AlamarBlue active compound, resazurin, a blue, water soluble, non-toxic and cell permeable molecule, which can be followed by absorbance, is reduced by various metabolic pathways into resorufin, a red compound which can be followed by either absorbance or fluorescence. The assay allows the calculation of the percent viability (percent of living Trypanosomes remaining in each well) at the end of a lysis relative to the untreated condition by interpolation of fluorescent values (FLU) on a standard curve with a known amount of seeded trypanosome/well.
Trypanosoma brucei brucei (ATCC, Cat. No. PRA-382)
• Lister 427 VSG 221 bloodstream form.
Equipment • E1-Clip Tip pipette 12 channel adjustable 2-125 μL, Cat. No. 4672070BT • ThermoFisher MultiDrop 384, Cat. No. 5840300 • Multidrop • Agilent Bravo, Cat. No. G5409A • Bravo • SpectraMax M5 Assay Ready Plates (ARPs) • ARPs comes in two formats: • […] final top concentration with a 2.5 fold dilution down. • […] final top concentration with a 3 fold dilution down. • Both have a 10 point Dose response. • 0.1% DMSO final in the Black Assay Plate. • Compounds are diluted 1000 fold in the Black Assay Plate. • Each plate is designed for 14 compounds in duplicate. • In the final Black Assay Plate: • Column 1: Media only (no APOL1) (100% viable) • Column 2-23: 0.05 μg/mL APOL1 (˜EC90) (10% viable with APOL1) • Column 24: 0.1 μg/mL APOL1 (EC100) (Approx. […] Step 2, Day 4 • Centrifuge at 800×g for 5 minutes at room temperature. • Resuspend in 1 mL media. • Make a 1:25 fold dilution (10 μL/240 μL media). • Count on a hemocytometer (after adding parasites). • Let sit for 1-2 minutes for the parasites to settle. • Count should be approximately 100 viable motile parasites/16 grid or approximately 25×10^6 parasites/flask. • Passage the parasites by adding 1×10^6 parasites/T75 flask in 20 mL media. • Passage the parasites by adding 2.33×10^6 parasites/T175 flask in 46.6 mL media. • For every T75 flask should make enough for approximately 1.5×384 well assay plates. • For every T175 flask should make enough for approximately 3.8×384 well assay plates. Step 3, Day 6 • Centrifuge at 800×g for 5 minutes. • Resuspend in 3 mL assay media (No phenol red, no FBS) per 75 starting flask. • Resuspend in 7 mL assay media (No phenol red, no FBS) per 175 flask • Make a 1:25 fold dilution. • Count by hemocytometer. • Every T75 flask set up should have approximately 75×10^6 parasites/flask (verify doubling time=8.7 hours±1 hour). • Every T175 flask set up should have approximately 175×10^6 parasites/flask (verify doubling time=8.7 hours±1 hour). • Require 46×10^6 parasites per 384 well plate (at 120,000 parasites per well). […]

APOL1 = biological target: T2, APOL1 (Homo sapiens, UniProt O14791); test: Multi-Tox Assay (MultiTox-Fluor Multiplex Cytotoxicity Assay in tet-inducible APOL1 T-REx-HEK293 cells; Table 46 does not say which APOL1 variant G0/G1/G2); format: cell-based; settings: APOL1 variant not given; for IC50: IP50 = IC50 for cell proliferation
T2 sequence (O14791 1-398 S342G/I384M): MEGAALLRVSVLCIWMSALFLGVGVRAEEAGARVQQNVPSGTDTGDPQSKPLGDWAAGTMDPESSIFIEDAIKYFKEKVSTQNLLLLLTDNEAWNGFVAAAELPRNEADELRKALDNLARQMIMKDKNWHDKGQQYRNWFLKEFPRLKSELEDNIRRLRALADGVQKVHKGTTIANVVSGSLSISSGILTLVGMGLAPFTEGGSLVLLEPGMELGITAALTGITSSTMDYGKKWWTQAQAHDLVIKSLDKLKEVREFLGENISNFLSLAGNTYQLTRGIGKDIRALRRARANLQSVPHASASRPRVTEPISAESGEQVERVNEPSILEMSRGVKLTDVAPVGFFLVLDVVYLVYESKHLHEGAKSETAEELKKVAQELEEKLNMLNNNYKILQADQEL

Compound	IC50 (APOL1 G1)	Emax (APOL1 G1)	Multi-Tox Assay Max Activity (%) (APOL1)	IC50 (APOL1)	IC90 (APOL1)
COc1ccc([C@@H]2C[C@]3(C[C@H](C)N2)OCCc2cc(Cl)sc23)c(F)c1 (racemic) [Compound 44]	< 50 nM	106%	99.5%	< 50 nM	
C[C@H]1C[C@@]2(C[C@@H](c3ccc(C(N)=O)cc3)N1)OCCc1cc(Cl)sc12 (racemic) [Compound 47]	< 50 nM			< 50 nM	
Cc1n[nH]c2ncc([C@@H]3C[C@]4(C[C@H](C)N3)OCCc3cc(Cl)sc34)cc12 (racemic) [Compound 48]	< 50 nM	102%	99.0%	< 50 nM	
COc1ccc([C@@H]2C[C@]3(C[C@H](C)N2)OCCc2cc(Cl)sc23)cn1 (racemic) [Compound 49]	< 50 nM	104%		< 50 nM	
CC(=O)Nc1ccc([C@@H]2C[C@]3(C[C@H](C)N2)OCCc2cc(Cl)sc23)cc1 (racemic) [Compound 50]	< 50 nM	103%	99.7%	< 50 nM	
C[C@H]1C[C@@]2(C[C@@H](c3cnc(C4CC4)nc3)N1)OCCc1cc(Cl)sc12 (racemic) [Compound 52]	< 50 nM	104%	99.7%	< 50 nM	
C[C@H]1C[C@@]2(C[C@@H](c3cccc(C#N)n3)N1)OCCc1cc(Cl)sc12 (racemic) [Compound 53]	50 to 500 nM	106%	99.3%	< 50 nM	
C[C@H]1C[C@@]2(C[C@@H](c3ccc4c(c3)NC(=O)CO4)N1)OCCc1cc(Cl)sc12 (racemic) [Compound 54]	< 50 nM	102%	100.0%	< 50 nM	< 50 nM
Cc1ccc([C@@H]2C[C@]3(C[C@H](C)N2)OCCc2cc(Cl)sc23)cn1 (racemic) [Compound 55]	< 50 nM	112%	99.7%	< 50 nM	
C[C@H]1C[C@@]2(C[C@@H](c3cnn(CCO)c3)N1)OCCc1cc(Cl)sc12 (racemic) [Compound 56]	< 50 nM	116%	99.8%	< 50 nM	
C[C@H]1C[C@@]2(C[C@@H](c3cnc(N)nc3)N1)OCCc1cc(Cl)sc12 (racemic) [Compound 57]	< 50 nM	105%	99.7%	< 50 nM	
Cc1ccc([C@@H]2C[C@]3(C[C@H](C)N2)OCCc2cc(Cl)sc23)nn1 (racemic) [Compound 58]	< 50 nM	100%	99.7%	< 50 nM	
C[C@H]1C[C@@]2(C[C@@H](c3ccc(O)cn3)N1)OCCc1cc(Cl)sc12 (racemic) [Compound 59]	< 50 nM	116%	99.3%	< 50 nM	
CNc1ncc([C@@H]2C[C@]3(C[C@H](C)N2)OCCc2cc(Cl)sc23)cn1 (racemic) [Compound 60]	< 50 nM	102%	99.7%	< 50 nM	
COc1ccc([C@@H]2C[C@]3(C[C@H](C)N2)OCCc2cc(Cl)sc23)cc1C#N (racemic) [Compound 62]	< 50 nM	95%		< 50 nM	
C[C@H]1C[C@@]2(C[C@@H](c3cnc(C(N)=O)cn3)N1)OCCc1cc(Cl)sc12 (racemic) [Compound 63]	< 50 nM	104%		< 50 nM	
Cc1cncc([C@@H]2C[C@]3(C[C@H](C)N2)OCCc2cc(Cl)sc23)c1 (racemic) [Compound 64]	< 50 nM			< 50 nM	
C[C@H]1C[C@@]2(C[C@@H](c3cnn(-c4ccccc4)c3)N1)OCCc1cc(Cl)sc12 (racemic) [Compound 65]	< 50 nM	105%		< 50 nM	
Cc1cc([C@@H]2C[C@]3(C[C@H](C)N2)OCCc2cc(Cl)sc23)on1 (racemic) [Compound 66]	< 50 nM	103%		< 50 nM	
C[C@H]1C[C@@]2(C[C@@H](c3ccc4cn[nH]c4c3)N1)OCCc1cc(Cl)sc12 (racemic) [Compound 67]	< 50 nM	105%		< 50 nM	
C[C@H]1C[C@@]2(C[C@@H](c3ccc(O)nc3)N1)OCCc1cc(Cl)sc12 (racemic) [Compound 68]	< 50 nM	106%		< 50 nM	
CCOc1ccc([C@@H]2C[C@]3(C[C@H](C)N2)OCCc2cc(Cl)sc23)nc1 (racemic) [Compound 69]	< 50 nM	110%		< 50 nM	
C[C@H]1C[C@@]2(C[C@@H](c3cnc(-c4ccccc4)o3)N1)OCCc1cc(Cl)sc12 (racemic) [Compound 70]	< 50 nM	104%		< 50 nM	
C[C@H]1C[C@@]2(C[C@@H](c3ccc(C(=O)NC4CC4)cc3)N1)OCCc1cc(Cl)sc12 (racemic) [Compound 71]	< 50 nM	104%		< 50 nM	
C[C@H]1C[C@@]2(C[C@@H](c3c[nH]nn3)N1)OCCc1cc(Cl)sc12 (racemic) [Compound 72]	< 50 nM	118%		< 50 nM	
Cc1cc([C@@H]2C[C@]3(C[C@H](C)N2)OCCc2cc(Cl)sc23)[nH]n1 (racemic) [Compound 73]	< 50 nM	110%		< 50 nM	
C[C@H]1C[C@@]2(C[C@@H](c3cn4c(n3)COCC4)N1)OCCc1cc(Cl)sc12 (racemic) [Compound 74]	50 to 500 nM	110%		< 50 nM	
C[C@H]1C[C@@]2(C[C@@H](c3cnc(N(C)C)nc3)N1)OCCc1cc(Cl)sc12 (racemic) [Compound 75]	< 50 nM	105%		< 50 nM	
Cc1ccc([C@@H]2C[C@]3(C[C@H](C)N2)OCCc2cc(Cl)sc23)nc1 (racemic) [Compound 77]	< 50 nM	110%		< 50 nM	

Reference: US12421249B2, “Inhibitors of APOL1 and methods of using same” (Vertex Pharmaceuticals Incorporated, priority 2020, dated 2025)
